The source of these data is ChEMBL document CHEMBL1130543, “Solid-phase synthesis of hybrid thiazolidinedione-fatty acid PPAR ligands” (Bioorg Med Chem Lett, 1997).

A value given as a limit tells only on which side of the number the result lay.

Assay [1] in a line: Tested for transactivation of human PPAR gamma-Gal4 chimera in CV-1 cells. Format: functional, cell-based.
Assay [2] concerns the target T1, Peroxisome proliferator-activated receptor gamma (Homo sapiens, UniProt P37231).
T1 sequence (P37231 whole entry): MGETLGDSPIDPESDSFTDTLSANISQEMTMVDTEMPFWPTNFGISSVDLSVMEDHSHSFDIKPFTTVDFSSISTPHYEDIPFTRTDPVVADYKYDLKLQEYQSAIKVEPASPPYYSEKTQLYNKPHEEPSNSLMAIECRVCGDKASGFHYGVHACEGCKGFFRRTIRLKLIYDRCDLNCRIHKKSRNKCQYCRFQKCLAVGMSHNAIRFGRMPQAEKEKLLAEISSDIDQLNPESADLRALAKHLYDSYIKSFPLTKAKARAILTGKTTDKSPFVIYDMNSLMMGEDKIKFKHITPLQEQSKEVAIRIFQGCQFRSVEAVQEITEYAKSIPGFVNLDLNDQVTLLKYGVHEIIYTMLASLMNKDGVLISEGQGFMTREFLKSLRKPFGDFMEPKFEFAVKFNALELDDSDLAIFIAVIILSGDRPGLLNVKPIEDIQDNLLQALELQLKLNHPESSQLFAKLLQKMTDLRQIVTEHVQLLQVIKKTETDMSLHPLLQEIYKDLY
Description: Binding affinity was determined by displacement of 20 nM [3H]- thiazolidinedione from 4 nM biotinylated human peroxisome proliferator-activated receptor (PPAR gamma) ligand binding domain

The target of assay [3] is T1, Peroxisome proliferator-activated receptor gamma. Description: Binding affinity was determined by displacement of 20 nM [3H]- thiazolidinedione from 4 nM biotinylated human Peroxisome proliferator activated receptor gamma (PPAR gamma) ligand binding domain.

`CCCCCCCC(=O)N(C)CCOc1ccc(CC2SC(=O)NC2=O)cc1` (stereo not drawn) returned an EC50 in assay [1] of 0.28 µM. Further, in assay [2], the affinity corresponds to a Ki of 0.048 µM.

In assay [2], `CCCCCCCCC(=O)NCCOc1ccc(CC2SC(=O)NC2=O)cc1` (stereo not drawn) had a Ki of 0.27 µM.

As for `C=CCC/C=C/C(=O)NCCOc1ccc(CC2SC(=O)NC2=O)cc1` (stereo not drawn), the Ki in assay [2] was 6.8 µM.

In turn, `C/C=C/CC(=O)N(C)CCOc1ccc(CC2SC(=O)NC2=O)cc1` (stereo not drawn) displayed an inhibition constant (Ki) in assay [2] of 1.2 µM.

Take `C=CCCC(=O)NCCOc1ccc(CC2SC(=O)NC2=O)cc1` (stereo not drawn): the Ki in assay [2] is more than 10 µM.

On to `CCCCCCCCC(=O)N(C)CCOc1ccc(CC2SC(=O)NC2=O)cc1` (stereo not drawn), for which, in assay [1], the concentration for a half-maximal effect (EC50) was 0.28 µM. In addition, in assay [2], the affinity, expressed as Ki, was 0.018 µM.

With `CN(CCOc1ccc(CC2SC(=O)NC2=O)cc1)c1ccccn1` (stereo not drawn) [ROSIGLITAZONE], the concentration for a half-maximal effect (EC50) in assay [1] was determined as 0.05 µM.

In turn, `CCCCCC(=O)N(C)CCOc1ccc(CC2SC(=O)NC2=O)cc1` (stereo not drawn) had a Ki in assay [2] of 0.18 µM.

For the compound `CCCCCCCCCC(=O)NCCOc1ccc(CC2SC(=O)NC2=O)cc1` (stereo not drawn), in assay [2], the affinity corresponds to a Ki of 0.13 µM.

Consider `C/C=C/CC(=O)NCCOc1ccc(CC2SC(=O)NC2=O)cc1` (stereo not drawn), for which, in assay [2], the Ki is more than 10 µM.

As for `CCCCCCCCCC(=O)N(C)CCOc1ccc(CC2SC(=O)NC2=O)cc1` (stereo not drawn), in assay [1], the midpoint of the response, the EC50, lay at 0.29 µM. For the same compound, affinity in assay [2] was put at a Ki of 0.02 µM.

Regarding `CCCCCCC(=O)NCCOc1ccc(CC2SC(=O)NC2=O)cc1` (stereo not drawn), affinity in assay [2] was put at a Ki of 1.4 µM.

`CCCCCCCC(=O)NCCOc1ccc(CC2SC(=O)NC2=O)cc1` (stereo not drawn): affinity in assay [2] was put at a Ki of 0.29 µM.

`CC/C=C/C(=O)N(C)CCOc1ccc(CC2SC(=O)NC2=O)cc1` (stereo not drawn) returned a Ki in assay [2] of 1.2 µM.

In assay [1], `C=CCC/C=C/C(=O)N(C)CCOc1ccc(CC2SC(=O)NC2=O)cc1` (stereo not drawn) came in with an EC50 of 0.52 µM. This compound also registered a Ki in assay [2] of 0.018 µM.

Compound `CCCCCCC(=O)N(C)CCOc1ccc(CC2SC(=O)NC2=O)cc1` (stereo not drawn) registered an EC50 in assay [1] of 0.81 µM. The compound also yielded a Ki in assay [2] of 0.061 µM.

As to `CC/C=C/C(=O)NCCOc1ccc(CC2SC(=O)NC2=O)cc1` (stereo not drawn), in assay [2], the Ki is more than 10 µM.

Consider `C=CCCC(=O)N(C)CCOc1ccc(CC2SC(=O)NC2=O)cc1` (stereo not drawn), for which the Ki in assay [2] is 0.6 µM.

In turn, `CCCCC/C=C/C/C=C\C/C=C\C/C=C\CCCC(=O)O` gave a 50% effective concentration (EC50) in assay [1] of 30 µM. This compound also registered an inhibition constant (Ki) in assay [2] of 1.5 µM.

In assay [2], `CCCCC(=O)N(C)CCOc1ccc(CC2SC(=O)NC2=O)cc1` (stereo not drawn) yielded a Ki of 1.1 µM.

With `CCCCC(=O)NCCOc1ccc(CC2SC(=O)NC2=O)cc1` (stereo not drawn), the Ki in assay [2] was more than 10 µM.

Consider `CCCCCC(=O)NCCOc1ccc(CC2SC(=O)NC2=O)cc1` (stereo not drawn), for which affinity in assay [3] was put at a Ki of 10 µM.

In general, EC50 refers to the concentration needed to bring the measured effect to its halfway point. Lower therefore signals an effect from little substance. By Ki is commonly meant the dissociation constant of the complex between target and ligand, obtained from inhibition or displacement. Higher therefore signals lower affinity.
